The text below walks through data of patent US20030036567A1, “PROPYLENE GLYCOL AS AN AGENT TO STIMUATE THROMBOPOIESIS” (priority 2001, published 2003).

Read-outs that look alike come from different tables or passages of the source.

For series [1] the following is noted: single oral dose; cited from earlier work.
Series [2] relates to CD34+CD38- hematopoietic stem cells. Description: Colony formation from CD34+CD38- hematopoietic stem cells in semi-solid culture. The format is cell-based, human. To be noted: 500 cells per ml, 14 days, Figure 1. Here is the method:
Example 3. CD34+CD38- cells isolated from human bone marrow (Poietic Technologies) were counted using a hemocytometer and plated in semi-solid culture media (MethoCult GF+H4435, StemCell Technologies, Vancouver, British Columbia) containing methylcellulose, fetal bovine serum, BSA, recombinant human (rh) SCF, rh GM-CSF, rh G-CSF, rh IL-3, rh IL-6, rh erythropoietin, and L-glutamine to which were added varying concentrations of propylene glycol (FW=76.1 Density=1.04g/ml Fisher Scientific). The cells were plated at a density of 500 cells per 1 ml per 35 mm petri dish. After incubation at 37 °C, 5% CO2 for 14 days, the dishes were scored for colony formation.

The subject of a further series is Murine bone marrow cells. Description: Long term culture initiating cell assay (LTCIC). Particulars: 500 ng/ml, Figure 2. The series is classed as cell-based, C57bl mice. As for the experimental part:
Example 4. Murine bone marrow was obtained from the femurs of adult C57bl mice, suspended in Myelocult (Stem Cell Technologies, Vancouver Canada), and cells were isolated by centrifugation at 500g for 10 minutes at 4 °C. Viability was determined by Trypan blue exclusion and aliquots were taken for plating efficiency in methylcellulose culture (MethoCult, Stem Cell Technologies). The remaining cell suspension was plated at a density of 6.25 x10^4/well into 24 well plates containing irradiated FBMD-1 feeder layers. To appropriate wells, propylene glycol was added to final concentration of 500 ng/ml. At weekly interval the cells were demidepopulated and fed with 250μl fresh medium. The harvested cells were washed with PBS and added to a 2.5 ml tube of MethoCult. Two 35mm petri dishes containing 1 ml each were plated from each tube. After 10 days incubation at 37 °C, 5% CO2, the dishes were scored for colonies.

The conditions of series [3]: accidental intoxication, cited from earlier work.
For series [4] the following is noted: diet containing 6 or 12% propylene glycol; cited from earlier work.
Series [5] can be described thus: Case report Patient 2, ingestion of antifreeze containing 30% propylene glycol. The series is classed as in vivo, human. As for the experimental part:
Example 2. A person ingested an unknown amount of the antifreeze Freeze Proof containing 30% propylene glycol earlier. Following ingestion, the child acted normally and ate well until approximately 6 hours later when they developed slurred speech, right facial drooping, an abnormal, wobbling gait, and was noted walking into walls and unable sit up by […]. They were the brought to the emergency room approximately 12 hours after ingestion with the above symptoms. At that time a toxicological screen was obtained which was qualitatively positive for propylene glycol. They were then transferred to University Medical Center where their blood pressure was 106/70, pulse was 113, respiration was 18, temperature was 36.3 C. At that time they had slurred speech, good facial symmetry, intact cranial nerve examination, but an unsteady gait, and was drowsy and lethargic but arousable. Their pupils were equal and reactive to light. […] The child was given a charcoal and sorbitol lavage through an oral naso-gastric tube as well as IV fluid therapy with normal saline. Within 4 hours of admission, the child was able to walk and talk well without evidence of slurred speech. The following morning the child was discharged from the hospital with no evidence of the symptoms originally observed.

Series [6] deals with human proximal tubule (HPT) cells. Particulars: normally proliferating cultured HPT cells; cited from earlier work.
For series [7] the following is noted: human, in vivo. The source says:
Example 1. Patient 1 was a person with a history of congenital aqueductal stenosis diagnosed and treated with a Torkildson shunt. Nineteen months prior to admission, they sustained a minor head injury in a motor vehicle accident resulting in a shunt malfunction with recurrent headaches, necessitating treatment with a ventriculoperitoneal shunt. Consequent subdural hygromas became infected, leaving the patient with marked cognitive and motor impairments. They were transferred to a rehabilitation facility six months prior to admission to our hospital. […] All biochemical and hematologic abnormalities resolved within 36 hours. The patient remained well until four weeks prior to admission when they again developed fever (106), tachycardia (169 bpm), and tachypnea. Similar biochemical and hematological abnormalities were noted including a white blood cell count of 25,000 (per mm^3) and a thrombocyte count of 469,000 (per mm^3). Cultures of blood, urine, and CSF were negative. Within 36 hours the patient returned to baseline. Similar episodes were noted to occur at roughly seven day intervals. CT scans of chest, abdomen and pelvis, and a gallium scan were unremarkable. After the fourth recorded episode, the patient was transferred to our neurological unit for evaluation of an occult ventriculoperitoneal shunt infection or possible hypothalamic dysregulation.
On transfer, the patient was noted to have BP 120/80, HR 88 bpm and T 37.5. The general physical examination was notable only for generalized pallor and contractures of the lower extremities. They were awake but only able to follow single midline one-step commands. […] The patient was treated with kayexalate. The anion gap acidosis resolved within twelve hours. At that time, the patient was noted to develop oliguric renal insufficiency with a BUN of 41 (mg/dl) and creatinine of 2.2 (mg/dl). […] An unusual "green stool" which caked the patient's rectum was collected. Samples of the patient's blood, urine, and stool (collected 17 hours after the recorded onset of symptoms) were sent for toxicologic analysis. […]
In addition, prominent throughout the aspirate were eosinophils, mast cells as well as eo-basophils. Megakaryocytes were abundant.

For series [8] the following is noted: occupational exposure; cited from earlier work.

Regarding `CC(O)CO` (stereo not shown) [propylene glycol, 1,2-propanediol], in series [1], the spleen weight entry is reported as “significant increase in spleen weight”. Further, the “effect on CFU formed from CD34+ cells” value in series [2] is given as “increased CFU formed from CD34+ cells”. For the same compound, the “increase of total cell number on the cultures over cells not exposed” value in the series with Murine bone marrow cells is 50%. Moreover, the WBC in series [3] (chart review) is given as 25,000 per mm^3. Moreover, the anion gap in [3] is given as 28. Also, in series [4], the erythrocyte effects entry was “accelerated erythropoiesis and reduction in red blood cell life span”. Further, the “biochemical or hematological outcome” value in series [5] is “no biochemical or hematological abnormalities”. Also, the “concentration with toxic effects” value in series [6] was 50000 µM. Also, in series [7], the BUN amounted to 41 mg/dL, the LDH is given as 528 U/liter, the SGOT stood at 151 U/liter and the anion gap was found to be 24. In series [7], the bicarbonate stood at 16 mmol/L; the bone marrow studies result was “relatively hypercellular marrow with increased myeloid precursors and megakaryocytes”; the creatinine came to 2.2 mg/dL; the creatinine kinase is 8400 U/liter. Also, in series [7], the “hematologic response to acute exposure” value is “dramatic leukocytosis and thrombocytosis”; the potassium was determined as 5.8 mmol/L.
Consider `COC(C)COC(C)CO` (stereo not shown) [dipropylene glycol monomethyl ether], for which the bone marrow findings entry in series [8] was “generally hypocellular marrow with decreased myeloid to erythroid ratios and an abundance of stored iron”.
